The experiment has as its target T1, recombinant human glucokinase (Homo sapiens, UniProt P35557).
T1 construct: N-terminal His-tag ((His)8-VEQILA . . . Q466); made in house; host or cells: E. coli
T1 sequence (P35557 17-466 isoform P35557-2): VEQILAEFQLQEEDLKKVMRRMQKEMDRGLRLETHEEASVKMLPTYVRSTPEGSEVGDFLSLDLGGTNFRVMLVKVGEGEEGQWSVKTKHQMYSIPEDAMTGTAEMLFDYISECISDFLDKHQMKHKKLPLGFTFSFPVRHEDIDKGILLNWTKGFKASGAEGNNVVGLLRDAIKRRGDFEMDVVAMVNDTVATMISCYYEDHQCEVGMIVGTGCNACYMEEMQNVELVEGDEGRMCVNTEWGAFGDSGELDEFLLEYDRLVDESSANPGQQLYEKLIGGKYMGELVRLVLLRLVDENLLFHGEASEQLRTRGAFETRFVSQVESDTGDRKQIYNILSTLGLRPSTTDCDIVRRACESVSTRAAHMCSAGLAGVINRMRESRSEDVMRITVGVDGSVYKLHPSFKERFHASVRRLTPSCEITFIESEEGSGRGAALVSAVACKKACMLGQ
The experiment is described as follows: Glucokinase Activity Assay (I): spectrometric assay coupled to glucose 6-phosphate dehydrogenase. The settings on record: 15 mM glucose. The format is biochemical. As to the method:
Glucokinase activity is assayed spectrometrically coupled to glucose 6-phosphate dehydrogenase to determine compound activation of glucokinase. The final assay contains 50 mM Hepes, pH 7.1, 50 mM KCl, 5 mM MgCl2, 2 mM dithiothreitol, 0.6 mM NADP, 1 mM ATP, 0.195 μM G-6-P dehydrogenase (from Roche, 127 671), 15 nM recombinant human glucokinase.
The purification of His-tagged human glucokinase (hGK) was performed as follows: The cell pellet from 50 ml E. coli culture was resuspended in 5 ml extraction buffer A (25 mM HEPES, pH 8.0, 1 mM MgCl2, 150 mM NaCl, 2 mM mercaptoethanol) with addition of 0.25 mg/ml lysozyme and 50 μg/ml sodium azide. […]
The compound to be tested is added into the well in final 2.5% DMSO concentration in an amount sufficient to give a desired concentration of compound, for instance 1, 5, 10, 25 or 50 μM. […] The plate is incubated at 25° C. for 5 min and kinetics is measured at 340 nm in SpectraMax every 30 seconds for 5 minutes. Results for each compound are expressed as the fold activation of the glucokinase activity compared to the activation of the glucokinase enzyme in an assay without compound after having been subtracted from a “blank”, which is without glucokinase enzyme and without compound. […]
The glucose sensitivity of the compounds are measured at a compound concentration of 10 μM and at glucose concentrations of 5 and 15 mM.

For the compound `C[C@H]1CC[C@H](N(CC(F)(F)c2ccccc2)C(=O)Nc2ncc(SCC(=O)O)s2)CC1` [Example 83, {2-[3-(2,2-Difluoro-2-phenyl-ethyl)-3-(trans-4-methyl-cyclohexyl)-ureido]-thiazol-5-ylsulfanyl}-acetic acid], the EC50 (usually the concentration needed to bring the measured effect to its halfway point) turned out to be 289 nM. Also, the “FA (15 mM)” value (fold activation of glucokinase activity vs assay without compound) is on record as 2.1.
